Assay [1] concerns the target T1, DNA topoisomerase 1 (Homo sapiens) (UniProt P11387).
T1 sequence (whole entry): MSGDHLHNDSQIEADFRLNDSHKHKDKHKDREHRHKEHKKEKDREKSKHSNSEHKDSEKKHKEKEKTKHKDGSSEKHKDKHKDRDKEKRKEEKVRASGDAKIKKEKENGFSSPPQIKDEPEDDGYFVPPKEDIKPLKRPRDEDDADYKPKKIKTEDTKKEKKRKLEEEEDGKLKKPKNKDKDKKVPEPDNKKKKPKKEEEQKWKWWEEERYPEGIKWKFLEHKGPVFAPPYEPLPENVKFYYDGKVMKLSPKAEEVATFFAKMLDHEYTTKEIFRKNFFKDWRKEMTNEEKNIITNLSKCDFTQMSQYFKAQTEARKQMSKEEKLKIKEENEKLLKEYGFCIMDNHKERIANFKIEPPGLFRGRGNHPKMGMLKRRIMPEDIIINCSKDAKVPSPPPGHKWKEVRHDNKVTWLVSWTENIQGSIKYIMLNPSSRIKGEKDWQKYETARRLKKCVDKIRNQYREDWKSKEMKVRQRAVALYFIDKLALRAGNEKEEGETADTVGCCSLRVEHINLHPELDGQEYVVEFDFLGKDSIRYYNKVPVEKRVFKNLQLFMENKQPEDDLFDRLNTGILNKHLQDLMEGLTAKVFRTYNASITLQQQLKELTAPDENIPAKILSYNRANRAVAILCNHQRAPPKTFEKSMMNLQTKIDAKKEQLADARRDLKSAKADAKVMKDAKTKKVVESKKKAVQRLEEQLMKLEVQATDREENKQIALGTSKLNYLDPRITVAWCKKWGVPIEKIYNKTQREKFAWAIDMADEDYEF
Put plainly: Inhibition of Topoisomerase 1 mediated DNA cleavage activity in a cell free assay at 100 uM.

The target of assay [2] is DNA topoisomerase II (Homo sapiens) (UniProt P11388+Q02880). Put plainly: Inhibition of Topoisomerase 2 mediated DNA cleavage activity in a cell free assay at 100 uM. It counts as protein assay.

Active and inactive are the calls of the source. The rule behind the calls is not given here.

As for `O=C1c2[nH]ccc2C2=NCCc3n[nH]c1c32`, the result in assay [1] was Active. In addition, the outcome in assay [2] was inactive.

On to `O=C1c2cc[nH]c2C2=NCCc3n[nH]c1c32`, for which the outcome in assay [1] and in assay [2] was inactive.

(Values after ChEMBL document CHEMBL1148569, “Aza-analogues of the marine pyrroloquinoline alkaloids wakayin and tsitsikammamines: synthesis and topoisomerase inhibition” (Bioorg Med Chem Lett, 2006).)
